# Experimental data from patent US20260042764A1, “COMPOSITIONS AND METHODS FOR INHIBITION OF KRAS” (TheRas, Inc., priority 2022, published 2026).
# Experiments:
# [1] = system: SW620 cells (KRAS G12V); assay: Cell-based pERK HTRF assay in SW620 cell (Biological Example 4); conditions: pERK HTRF
# Outline: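 In SW620 cells grown in RPMI with 10% FBS, a 4 h compound treatment (0.25% DMSO, 9-point curve from 1 μM) preceded lysis. Phospho-ERK levels were then read by time-resolved FRET at 615 nm emission.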
# [2] = system: GP2d cells (KRAS G12D); assay: Cell-based pERK HTRF assay in GP2d cell (Biological Example 2); conditions: GP2d (KRAS G12D) cells, pERK HTRF
# Outline: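 Phospho-ERK is measured by HTRF following a 60 min compound exposure at 0.25% DMSO, with a 9-point half-log curve topping at 1 μM or 100 nM.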
# [3] = target: T1, Avi-KRAS G12V (1-169) GppNHp/RAF1 RBD-3xFLAG (52-151) (Homo sapiens, UniProt P01116, G12V); assay: Raf1-KRAS G12V-GppNHP disruption HTRF assay (Biological Example 1); format: binding; conditions: KRAS G12V-GppNHp/RAF1 RBD HTRF
# T1 construct: Avi-KRAS G12V (1-169)
# T1 sequence (P01116 1-169 isoform P01116-2 G12V): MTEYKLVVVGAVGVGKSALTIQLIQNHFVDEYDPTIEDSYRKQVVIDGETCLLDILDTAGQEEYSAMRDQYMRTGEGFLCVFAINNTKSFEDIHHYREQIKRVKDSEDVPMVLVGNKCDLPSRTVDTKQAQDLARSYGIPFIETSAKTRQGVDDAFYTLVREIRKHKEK
# Outline: (§1)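 Percent activity versus DMSO (100%) was derived from HTRF signal after KRAS–RAF1 RBD protein mix was incubated 1 h at room temperature with shaking and detection reagents were added for a further 1 h.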
# [4] = target: T2, Avi-KRAS G12D (1-169) GppNHp/RAF1 RBD-3xFLAG (52-151) (Homo sapiens, UniProt P01116, G12D); assay: Raf1-KRAS G12D-GppNHP disruption HTRF assay (Biological Example 1); format: binding; conditions: KRAS G12D-GppNHp/RAF1 RBD HTRF
# T2 construct: Avi-KRAS G12D (1-169)
# T2 sequence (P01116 1-169 isoform P01116-2 G12D): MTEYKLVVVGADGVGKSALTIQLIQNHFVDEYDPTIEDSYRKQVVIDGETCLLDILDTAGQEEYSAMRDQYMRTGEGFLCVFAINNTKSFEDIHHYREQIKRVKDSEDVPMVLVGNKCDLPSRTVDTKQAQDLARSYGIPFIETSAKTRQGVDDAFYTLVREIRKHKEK
# Outline: as §1
# [5] = target: T3, Avi-KRAS WT (1-169) GppNHp/RAF1 RBD-3xFLAG (52-151) (Homo sapiens, UniProt P01116); assay: Raf1-KRAS WT-GppNHP disruption HTRF assay (Biological Example 1); format: binding; conditions: KRAS WT-GppNHp/RAF1 RBD HTRF
# T3 construct: Avi-KRAS WT (1-169)
# T3 sequence (P01116 1-169 isoform P01116-2): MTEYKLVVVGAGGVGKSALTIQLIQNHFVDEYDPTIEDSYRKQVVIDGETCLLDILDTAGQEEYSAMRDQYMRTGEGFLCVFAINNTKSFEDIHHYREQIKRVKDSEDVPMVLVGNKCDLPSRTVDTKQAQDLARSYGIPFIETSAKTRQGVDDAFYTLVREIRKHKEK
# Outline: as §1
# [6] = target: T4, Avi-KRAS G12R (1-169) GppNHp/RAF1 RBD-3xFLAG (52-151) (Homo sapiens, UniProt P01116, G12R); assay: Raf1-KRAS G12R-GppNHP disruption HTRF assay (Biological Example 1); format: binding; conditions: KRAS G12R-GppNHp/RAF1 RBD HTRF
# T4 construct: Avi-KRAS G12R (1-169)
# T4 sequence (P01116 1-169 isoform P01116-2 G12R): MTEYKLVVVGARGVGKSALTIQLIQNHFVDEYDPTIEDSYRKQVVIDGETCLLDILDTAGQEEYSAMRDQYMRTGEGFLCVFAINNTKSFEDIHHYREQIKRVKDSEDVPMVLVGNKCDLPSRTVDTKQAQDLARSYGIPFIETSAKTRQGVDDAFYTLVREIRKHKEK
# Outline: as §1
# [7] = Homo sapiens, SW-620, SW620 (KRAS G12V) cells
SMILES,"IC50 [1, 7] [nM]",IC50 ([2]; GP2d) [nM],IC50 [3] [nM],IC50 [4] [nM],IC50 [5] [nM],IC50 [6] [nM],IC50 ([1]; SW620 (KRAS G12V) cells) [nM],IC50 [2] [nM]
CC(=O)N1C[C@@H]2OCCN(c3nc(OC[C@@]45CCCN4C[C@H](F)C5)nc4c(F)c(-c5ccc(F)c6sc(N)c(C#N)c56)c(C(F)(F)F)cc34)[C@@H]2C1 [Compound 481],100 to 1000,< 100,1000 to 10000,100 to 1000,100 to 1000,100 to 1000,,
CCN(c1nc(OC[C@@]23CCCN2C[C@H](F)C3)nc2c(F)c(-c3ccc(F)c4sc(N)c(C#N)c34)c(C(F)(F)F)cc12)[C@H]1CC(=O)N(C)C1 [Compound 482],< 100,< 100,100 to 1000,100 to 1000,100 to 1000,100 to 1000,,
N#Cc1c(N)sc2c(F)ccc(-c3c(C(F)(F)F)cc4c(N5CCn6nc(C7CC7)cc6C5)nc(OC[C@@]56CCCN5C[C@H](F)C6)nc4c3F)c12 [Compound 483],< 100,< 100,> 10000,1000 to 10000,> 10000,> 10000,,
N#Cc1nnn2c1CN(c1nc(OC[C@@]34CCCN3C[C@H](F)C4)nc3c(F)c(-c4ccc(F)c5sc(N)c(C#N)c45)c(C(F)(F)F)cc13)CC2 [Compound 486],< 100,< 100,100 to 1000,100 to 1000,100 to 1000,100 to 1000,,
N#Cc1c(N)sc2c(F)ccc(-c3c(C(F)(F)F)cc4c(N5CCCN6C(=O)CC[C@H]6C5)nc(OC[C@@]56CCCN5C[C@H](F)C6)nc4c3F)c12 [Compound 487],< 100,< 100,1000 to 10000,100 to 1000,100 to 1000,1000 to 10000,,
CCN(c1nc(OC[C@@]23CCCN2C[C@H](F)C3)nc2c(F)c(-c3ccc(F)c4sc(N)c(C#N)c34)c(C(F)(F)F)cc12)[C@@H]1CCN(C(=O)N(C)C)[C@@H]1C [Compound 488],< 100,< 100,100 to 1000,< 100,100 to 1000,< 100,,
CCN(c1nc(OC[C@@]23CCCN2C[C@H](F)C3)nc2c(F)c(-c3ccc(F)c4sc(N)c(C#N)c34)c(C(F)(F)F)cc12)[C@@H]1CCN(C(=O)OC)[C@@H]1C [Compound 489],< 100,< 100,100 to 1000,100 to 1000,100 to 1000,100 to 1000,,
N#Cc1c(N)sc2c(F)ccc(-c3c(C(F)(F)F)cc4c(N5CCCN6C(=O)CCC6C5)nc(OCC56CCCN5CC(F)C6)nc4c3F)c12 (stereo not drawn) [Compound 490],,,1000 to 10000,100 to 1000,1000 to 10000,1000 to 10000,100 to 1000,100 to 1000
CCN(c1nc(OC[C@@]23CCCN2C[C@H](F)C3)nc2c(F)c(-c3ccc(F)c4sc(N)c(C#N)c34)c(C(F)(F)F)cc12)[C@H]1CC(=O)N(C2CC2)C1 [Compound 496],100 to 1000,< 100,1000 to 10000,100 to 1000,1000 to 10000,1000 to 10000,,
CN(C)C(=O)[C@H]1CC[C@@H](N(C)c2nc(OC[C@@]34CCCN3C[C@H](F)C4)nc3c(F)c(-c4ccc(F)c5sc(N)c(C#N)c45)c(C(F)(F)F)cc23)C1 [Compound 497],< 100,< 100,1000 to 10000,100 to 1000,1000 to 10000,1000 to 10000,,
CN1CC(F)(F)C[C@H]1COc1nc(N2CC3CC(C2)O3)c2cc(C(F)(F)F)c(-c3ccc(F)c4sc(N)c(C#N)c34)c(F)c2n1 [Compound 498],> 1000,> 1000,> 10000,> 10000,> 10000,> 10000,,
CC(C)C(=O)N1CC[C@](C)(N(C)c2nc(OC[C@@]34CCCN3C[C@H](F)C4)nc3c(F)c(-c4ccc(F)c5sc(N)c(C#N)c45)c(C(F)(F)F)cc23)C1 [Compound 499],< 100,< 100,1000 to 10000,100 to 1000,1000 to 10000,1000 to 10000,,
N#Cc1c(N)sc2c(F)ccc(-c3c(C(F)(F)F)cc4c(N5CCn6nc(C(=O)N7CC[C@H](O)C7)cc6C5)nc(OC[C@@]56CCCN5C[C@H](F)C6)nc4c3F)c12 [Compound 500],100 to 1000,< 100,100 to 1000,100 to 1000,100 to 1000,100 to 1000,,
N#Cc1c(N)sc2c(F)ccc(-c3c(C(F)(F)F)cc4c(N5CCn6nc(C(=O)N7CC(O)C7)cc6C5)nc(OC[C@@]56CCCN5C[C@H](F)C6)nc4c3F)c12 [Compound 502],100 to 1000,< 100,100 to 1000,100 to 1000,100 to 1000,100 to 1000,,
CC(=O)N1C[C@@H](N(C)c2nc(OC[C@@]34CCCN3C[C@H](F)C4)nc3c(F)c(-c4ccc(F)c5sc(N)c(C#N)c45)c(C(F)(F)F)cc23)C[C@H]1CC#N [Compound 503],100 to 1000,< 100,1000 to 10000,100 to 1000,1000 to 10000,1000 to 10000,,
CC(=O)N1CC[C@](C)(N(C)c2nc(OC[C@@]34CCCN3C[C@H](F)C4)nc3c(F)c(-c4ccc(F)c5sc(N)c(C#N)c45)c(C(F)(F)F)cc23)C1 [Compound 505],100 to 1000,< 100,1000 to 10000,1000 to 10000,1000 to 10000,1000 to 10000,,
CCC(=O)N1CC[C@](C)(N(C)c2nc(OC[C@@]34CCCN3C[C@H](F)C4)nc3c(F)c(-c4ccc(F)c5sc(N)c(C#N)c45)c(C(F)(F)F)cc23)C1 [Compound 506],< 100,< 100,1000 to 10000,100 to 1000,1000 to 10000,1000 to 10000,,
N#Cc1c(N)sc2c(F)ccc(-c3c(C(F)(F)F)cc4c(N5CCc6oncc6C5)nc(OC[C@@]56CCCN5C[C@H](F)C6)nc4c3F)c12 [Compound 507],< 100,< 100,1000 to 10000,100 to 1000,1000 to 10000,100 to 1000,,
N#Cc1c(N)sc2c(F)ccc(-c3c(C(F)(F)F)cc4c(N5CC6OCC5C6O)nc(OC[C@@]56CCCN5C[C@H](F)C6)nc4c3F)c12 (stereo partly drawn) [Compound 508],< 100,< 100,100 to 1000,100 to 1000,100 to 1000,100 to 1000,,
COC1C2CN(c3nc(OC[C@@]45CCCN4C[C@H](F)C5)nc4c(F)c(-c5ccc(F)c6sc(N)c(C#N)c56)c(C(F)(F)F)cc34)C1CO2 (stereo partly drawn) [Compound 509],< 100,< 100,100 to 1000,100 to 1000,100 to 1000,100 to 1000,,
